The source of these data is patent US20080118573A1, “Use of Heavy Metals in the Treatment of Biofilms” (priority 2004, published 2008).

Assay [1] deals with Pseudomonas aeruginosa ATCC 27853 planktonic and biofilm cultures. In kind it is cell-based. The settings on record: for Fold Tolerance (MBEC:MBC100) / MBEC / MBC100: MSVP; for MBEC: biofilm; for MIC: minimal media (MSVP), did not change with exposure time, mean ± SD of 28 trials; for MBC100: planktonic.
Assay [2] has the same test system. In kind it is cell-based. The settings on record: for Fold Tolerance (MBEC:MBC100) / MBEC / MBC100: LB+B1; for MBEC: biofilm; for MBC100: planktonic; for MIC: rich media (LB+B1), 4 replicates.
For assay [3], the system named is Pseudomonas aeruginosa ATCC 27853 cell populations. It counts as cell-based.
For assay [4], the system named is Escherichia coli JM109 planktonic and biofilm bacteria. In kind it is cell-based. The settings on record: LB+B1, 24 h exposure; for MIC: E. coli JM109; for MBEC: E. coli JM109 biofilm; for MBC: E. coli JM109 planktonic.
For assay [5], the system named is Staphylococcus aureus ATCC 29213 planktonic and biofilm bacteria. It counts as cell-based. The settings on record: LB+B1, 24 h exposure; for MIC: S. aureus ATCC 29213; for MBEC: S. aureus ATCC 29213 biofilm; for MBC: S. aureus ATCC 29213 planktonic.
The test system of assay [6] is Pseudomonas aeruginosa ATCC 27853 planktonic and biofilm bacteria. In kind it is cell-based. The settings on record: LB+B1, 24 h exposure; for MIC: P. aeruginosa ATCC 27853; for MBEC: P. aeruginosa ATCC 27853 biofilm; for MBC: P. aeruginosa ATCC 27853 planktonic.
Assay [7] concerns Pseudomonas aeruginosa biofilms. Put plainly: Metal and antibiotic combination assay. In kind it is cell-based. The settings on record: for MBC / MBEC / MIC: median of 4 replicates. On the procedure:
Cells were grown to a mean density of 6.0×10^6 cfu/peg in LB+B1 media.
• 1. […] All data are median values based on 4 replicates.

Assay [8] has as its system Pseudomonas aeruginosa 15442. Nature of the assay: Synergy matrix assay of polycide versus metals. In kind it is cell-based.
Assay [9] concerns Escherichia coli JM109 planktonic and biofilm bacteria. Nature of the assay: MBEC-HTP antibiotic susceptibility, E. coli. The settings on record: CA-MHB, 24 h exposure. In kind it is cell-based. Here is the method: (§1) Luria-Bertani medium was chosen for two reasons: 1) its established use in studies of metal resistance, and 2) because of the use of rich media in NCCLS testing protocols for antimicrobial resistance. Antibiotic resistance assays were performed using cation-adjusted Mueller-Hinton broth (CA-MHB, BDH Inc.) and subcultures, MBC and MBEC bacterial counts were performed using trypticase soy agar (TSA, Difco).
(§2) The present study used a novel high throughput method for screening biofilm susceptibility to metal cations and oxyanions: the MBEC device (MBEC Bioproducts Inc., Edmonton, Alberta, Canada, http://www.mbec.ca). The MBEC high throughput (MBEC-HTP) assay system consists of a shallow trough into which a plastic lid with 96 pegs fits. This peg lid also fits over a standard 96-well microtitre plate which can subsequently be used to setup serial dilutions of antimicrobial compounds. The bottom half of the MBEC device is a trough that has shallow channels that direct flow of an inoculated suspension over the pegs on the lid.
(§3) The inoculum was standardized to a 1.0 McFarland standard and verified by viable counts. The 1.0 McFarland standard inoculum was diluted 30-fold with growth media, which served as the growth suspension to inoculate the MBECJ device.
(§4) P. aeruginosa was incubated for 9 h, S. aureus for 24 h and E. coli for 24 h to generate approximately equivalent biofilms of 6.0×10^6 cfu/peg. Following the incubation period, growth of biofilm and planktonic cultures in the MBECJ device were discerned and verified by viable cell counts.
(§5) Chloramphenicol (Sigma) was prepared in 50% ethanol and treated identically to the other antibiotics. 10% ethanol was added to the growth controls for chloramphenicol assays. […] Starting with the working solutions, serial two-fold dilutions were made in the wells of a 96-well plate (the challenge plate), leaving the first well of each row as a sterility control and the second as a growth control (i.e. no antibiotic).

In assay [10] the test system is Pseudomonas aeruginosa ATCC 27853 planktonic and biofilm bacteria. Put plainly: MBEC-HTP antibiotic susceptibility, P. aeruginosa. The settings on record: CA-MHB, 24 h exposure. In kind it is cell-based. On the procedure: as §1, §2, §3, §4, §5
In a further assay the test system is P. aeruginosa biofilms. The settings on record: after 100 h of exposure; cited from earlier work.
[11] abbreviates: antibiotic or heavy metal alone, LB+B1.

Molecules are shown by their SMILES. Converted amounts (≈) assume the structure as drawn. “And” between values parts separate entries of the source, which are not always exact repeats. Equal entries are not always repeated. Where two headings read alike, the source gives them in different places. Marks after values point to notes of the source that are not given here. Bounds are passed on as bounds.

With `O.O.O.O.O.O=S(=O)([O-])[O-].[Cu+2]` [Cu^2+, cupric sulphate], the “Fold Tolerance (MBEC:MBC100)” value was found to be 2.0 in assay [1] (exposure time 8 to 10 h); 2.0 in assay [1] (exposure time 4 h); 1.7 in assay [1] (exposure time 6 h); 1.1 in assay [1] (exposure time 27 h); 4.5 in assay [2] (exposure time 2 h); 1.0 in assay [2] (exposure time 27 h). The MBEC in assay [1] (exposure time 8 to 10 h) is 32 ± 0 mM; in assay [1] (exposure time 2 h) it was “≧258 mM”; in assay [1] (exposure time 4 h) it was 64 ± 45 mM; in assay [1] (exposure time 6 h), 36 ± 20 mM; in [1] (exposure time 27 h), 21 ± 11 mM; in assay [2] (exposure time 2 h) it was 72 ± 40 mM. In addition, the MBEC in assay [2] (exposure time 27 h) turned out to be 16 ± 0 mM; in assay [4], 13 ± 4 mM; in assay [5] it was 2.0 ± 0 mM; in [6] it was 14 ± 4.0 mM; in assay [7] (setting [11]), 1024 µg/mL. In addition, the MIC in [1] was 3.8 ± 1.9 mM; in assay [2], 12 ± 5 mM; in assay [4] it was 4.5 ± 1.4 mM; in assay [5], 2.0 ± 0 mM; in assay [6], 12 ± 5 mM; in assay [7] (setting [11]), 512 to 1024 µg/mL. Besides, the MBC100 in [1] (exposure time 8 to 10 h) amounted to 16 ± 0 mM; in [1] (exposure time 2 h), 20 ± 8 mM; in assay [1] (exposure time 4 h), 32 ± 0 mM; in [1] (exposure time 6 h), 21 ± 14 mM; in assay [1] (exposure time 27 h), 19 ± 11 mM; in assay [2] (exposure time 2 h), 16 ± 0 mM. Further, the MBC100 in assay [2] (exposure time 27 h) worked out at 16 ± 0 mM. For the same compound, the “eradication of the biofilm cultures with extended exposure times” value in assay [3] (27 hours exposure) is “complete eradication”. For the same compound, the MBC in assay [4] came out at 15 ± 3 mM; in assay [5], 2.0 ± 0 mM; in assay [6] it was 14 ± 4.0 mM; in [7] (setting [11]), 1024 µg/mL. Moreover, the “effect on the efficacy of the polycide” value in assay [8] (adding as little as 16 micrograms per ml of the metal) is reported as “quadruple”.
As for `NC[C@H]1O[C@H](O[C@H]2[C@H](O)[C@@H](O[C@H]3O[C@H](CO)[C@@H](O)[C@H](N)[C@H]3O)[C@H](N)C[C@@H]2N)[C@H](N)C[C@@H]1O` [Tobramycin], the MBEC amounted to 16 ± 0 µg/mL in [9] (E. coli JM109 biofilm) and 112 ± 32 µg/mL in assay [10] (P. aeruginosa ATCC 27853 biofilm). Further, the MIC in assay [9] (Escherichia coli, E. coli JM109, read-out: MIC) is 4 µg/mL (≈ 8.56 µM); in [10] (Pseudomonas aeruginosa, ATCC27853, P. aeruginosa ATCC 27853, read-out: MIC), 14 ± 4 µg/mL (≈ 29.9 µM). The MBC in [9] (Escherichia coli, E. coli JM109 planktonic, read-out: MBC) is 8 µg/mL (≈ 17.1 µM); in assay [10] (Pseudomonas aeruginosa, ATCC27853, P. aeruginosa ATCC 27853 planktonic, read-out: MBC) it was 28 ± 8 µg/mL (≈ 59.9 µM). For the same compound, the “log10 reduction in viable cell counts of biofilms” value with P. aeruginosa biofilms is “less than 0.5 log10”.
Take `O=S(=O)([O-])[O-].[Zn+2]` [Zn^2+, zinc sulphate]: the “Fold Tolerance (MBEC:MBC100)” value in assay [1] (exposure time 10 h) was determined as 2.3; in assay [1] (exposure time 27 h) it was 1.0. Moreover, the MBEC is over 125 mM in assay [1] (exposure time 2 to 8 h); “≧256 mM” in [1] (exposure time 10 h); 102 ± 47 mM in assay [1] (exposure time 27 h); over 125 mM in assay [2] (exposure time 2 or 27 h); 31 ± 0 mM in assay [4]; over 125 mM in assay [5]. Also, the MBEC in [6] is over 125 mM; in [7] (setting [11]), over 8192 µg/mL. For the same compound, the MIC was 9.5 mM and 9.5 ± 3.3 mM in assay [1]; 78 ± 31 mM in assay [2]; 2.2 ± 0.7 mM in assay [4]; 2.0 ± 0 mM in [5]; 78 ± 31 mM in assay [6]; 4096 µg/mL in assay [7] (setting [11]). The MBC100 in assay [1] (exposure time 2 to 8 h) is over 125 mM; in [1] (exposure time 10 h) it was 109 ± 31 mM; in assay [1] (exposure time 27 h), 102 ± 47 mM; in assay [2] (exposure time 2 or 27 h), over 125 mM. Also, the biofilm killed in assay [3] (2 h exposure, FIG. 2 Panel A) is 90-99%. Moreover, the “concentration tolerated by the surviving population” value in [3] (less than 0.1% survival of biofilm and planktonic cell populations) was over 125 mM. Also, the MBC in assay [4] is 31 ± 0 mM; in assay [5], over 125 mM; in [6] it was over 125 mM; in [7] (setting [11]), over 8192 µg/mL. In assay [8], the “synergistic effect on polycide activity” value is on record as “did not appear to have any synergistic effect”.
As for `O=C(O)c1cn(C2CC2)c2cc(N3CCNCC3)c(F)cc2c1=O` [Ciprofloxacin], in assay [7] (200 μg/ml Cu^2+), the “MBEC in the presence of Cu^2+, times less than the MBEC for the antibiotic alone” value was “at least 16 times”. Also, the MBC in assay [7] (Pseudomonas aeruginosa, antibiotic in combination with 200 μg/ml Cu^2+, read-out: MBC) is 8 µg/mL; in assay [7] (Pseudomonas aeruginosa, antibiotic in combination with 500 μg/ml Zn^2+, read-out: MBC), 32 µg/mL; in assay [7] (Pseudomonas aeruginosa, antibiotic or heavy metal alone, LB+B1, read-out: MBC) it was 8 µg/mL. The MIC in [7] (Pseudomonas aeruginosa, antibiotic in combination with 200 μg/ml Cu^2+, read-out: MIC) was 4 µg/mL; in [7] (Pseudomonas aeruginosa, antibiotic in combination with 500 μg/ml Zn^2+, read-out: MIC) it was 0.25 to 1 µg/mL. The MBEC was 16** μg/ml in [7] (antibiotic in combination with 200 μg/ml Cu^2+) and over 64 µg/mL in [7] (antibiotic in combination with 500 μg/ml Zn^2+). Besides, the “log10 reduction in viable cell counts of biofilms” value with P. aeruginosa biofilms is under 1.5 log10.
